Assay results published in patent US20220088155A1, “SUBCONJUNCTIVAL CHEMOTHERAPEUTIC DELIVERY BY FIBRIN SEALANT IN THE TREATMENT OF RETINOBLASTOMA” (BAXTER INTERNATIONALINC., priority 2019, published 2022).
Read-outs that look alike come from different tables or passages of the source.

Assays:
[1] = test system: WERI retinoblastoma cells; assay: Cell viability assay (resazurin/Alamar Blue), WERI; type: cell-based, human; conditions: single drug, read-out: Standalone IC50
Procedure: (§1) The human retinoblastoma Y79 (ATCC® HTB18™) and WERI (ATCC® HTB169™) cell lines were cultured in RPMI 1640 (ATCC®) medium supplemented with 20% (Y79) or 10% (WERI-RB) fetal bovine serum, 100 U/mL penicillin, and […] streptomycin in a humidified atmosphere of 5% CO2 at 37° C., grown in 75 cm^2 tissue culture flasks. Once confluent, cells were sub cultivated with fresh medium 1:2 to 1:4 ratios after discarding the supernatant and obtaining the gravity-settled aggregates.
(§2) 10 mL of cell suspension were centrifuged at 1000 G for 10 minutes. The supernatant was discarded and the pellet was then resuspended in media to 1.1*10^5 live cells/mL following a viability cell count check. Cells were plated in 96-well plates at 10,000 cells per well. Sample wells were treated with carboplatin, etoposide or vincristine at the concentrations of 1000 uM, 100 uM, 50 uM, 10 uM, 5 uM, 1 uM, 0.5 uM, and 0.1 uM. Untreated and non-cell controls include a 10 uL vehicle, bringing up all wells to 100 uL total volume. Experiments covered 24/48/72 hour incubations at 5% CO2 at 37° C. prior to analyses. Plates ready for analysis were incubated with 10 uL of 10× Alamar Blue Reagent for 1-4 hours (apparent color change) and emission intensity read at 585 nm following a 555 nm excitation.
(§3) Y79 and WERI cells were incubated with Vincristine, Etoposide, or Carboplatin using previously established half-maximal inhibitory concentrations in a fixed-ratio treatment paradigm. Y79 and WERI cells also were incubated with a mixture of Vincristine, Etoposide, or Carboplatin.

TISSEEL fibrin sealant = biological target: T1, TISSEEL fibrin sealant (Homo sapiens, UniProt P02671+P02675+P02679); assay: Scanning electron microscopy branching analysis of drug-embedded fibrin sealant; conditions: fibrin sealant admixed with 1 mM drug, SEM 5,000x, ImageJ skeleton analysis
T1 construct: purchased
T1 sequence (P02671 20-644 isoform P02671-2 limits assumed): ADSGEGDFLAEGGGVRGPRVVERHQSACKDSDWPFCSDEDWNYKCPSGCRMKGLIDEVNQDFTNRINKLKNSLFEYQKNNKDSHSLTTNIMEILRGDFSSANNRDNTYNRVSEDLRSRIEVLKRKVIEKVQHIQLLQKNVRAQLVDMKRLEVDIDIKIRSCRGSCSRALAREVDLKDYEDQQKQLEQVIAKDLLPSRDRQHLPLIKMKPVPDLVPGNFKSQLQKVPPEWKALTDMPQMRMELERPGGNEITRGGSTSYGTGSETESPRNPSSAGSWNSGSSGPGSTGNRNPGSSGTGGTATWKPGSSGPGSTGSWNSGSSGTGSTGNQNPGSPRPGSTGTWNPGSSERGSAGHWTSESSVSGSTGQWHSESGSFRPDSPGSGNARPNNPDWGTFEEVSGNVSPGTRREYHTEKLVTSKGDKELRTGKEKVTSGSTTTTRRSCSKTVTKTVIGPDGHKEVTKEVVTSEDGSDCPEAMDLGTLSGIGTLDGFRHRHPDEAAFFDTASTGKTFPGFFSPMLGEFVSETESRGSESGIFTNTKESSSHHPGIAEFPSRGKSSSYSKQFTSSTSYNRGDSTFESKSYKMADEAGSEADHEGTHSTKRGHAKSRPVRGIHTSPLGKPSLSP
T1 sequence (P02675 45-491 limits assumed): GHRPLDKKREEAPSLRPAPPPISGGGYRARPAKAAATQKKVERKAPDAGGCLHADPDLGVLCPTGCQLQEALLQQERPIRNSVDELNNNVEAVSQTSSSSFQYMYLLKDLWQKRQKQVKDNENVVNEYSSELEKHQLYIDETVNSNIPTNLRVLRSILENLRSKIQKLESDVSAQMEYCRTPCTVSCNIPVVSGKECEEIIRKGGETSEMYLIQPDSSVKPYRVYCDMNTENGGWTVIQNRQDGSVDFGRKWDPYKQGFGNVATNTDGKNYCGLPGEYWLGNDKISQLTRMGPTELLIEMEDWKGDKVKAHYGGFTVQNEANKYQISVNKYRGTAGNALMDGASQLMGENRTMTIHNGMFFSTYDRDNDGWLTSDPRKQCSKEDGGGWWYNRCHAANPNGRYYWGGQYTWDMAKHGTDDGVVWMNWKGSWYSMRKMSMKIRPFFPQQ
T1 sequence (P02679 27-437 isoform P02679-2 limits assumed): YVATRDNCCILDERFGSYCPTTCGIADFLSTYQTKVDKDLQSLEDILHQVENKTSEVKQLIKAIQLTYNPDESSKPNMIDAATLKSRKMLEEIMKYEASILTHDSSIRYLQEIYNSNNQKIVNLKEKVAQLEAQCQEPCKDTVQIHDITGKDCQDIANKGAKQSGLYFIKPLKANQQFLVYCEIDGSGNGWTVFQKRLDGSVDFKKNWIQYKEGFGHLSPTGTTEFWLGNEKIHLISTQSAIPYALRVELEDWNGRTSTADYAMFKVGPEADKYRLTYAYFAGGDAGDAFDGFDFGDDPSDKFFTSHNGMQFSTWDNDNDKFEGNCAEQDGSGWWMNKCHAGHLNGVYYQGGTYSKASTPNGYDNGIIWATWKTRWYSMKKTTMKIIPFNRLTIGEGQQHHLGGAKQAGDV
Procedure: FIGS. 8A to 8D depict fiber analysis of VEC-embedded fibrin sealant. Commercially available fibrin sealant was admixed with 1 mM additions of Vincristine, Etoposide, or Carboplatin. Samples were critically point dried and imaged by scanning electron microscopy at 5,000× magnification at various points around the samples. Images were uploaded into ImageJ for fiber analysis. […] In FIG. 8B, the images were binarized to 8-bit grayscale. In FIG. 8C, the binarized image was skeletonized to produce a representation of the fiber network. The Analyze Skeleton function was used to quantify fiber branches and junctions. […] Images analysed were taken at 5,000× magnificent and compared over a 800×800 pixel area. TISSEEL™ or TISSEEL™ admixed with chemotherapeutic drug (1 mM final concentration) was prepared according to the IFU. In short, 2 mM additions of chemotherapy were transferred via syringe and needle to the thrombin vial (500 IU/mL thrombin) during preparation and placed in a Fibrinotherm to spin and heat the mixtures to 37 degrees celsius. Following complete dissolution of both thrombin and fibrinogen solutions, each solution was pulled up into respective syringes and loaded in the Duploject spray system accompanying the kit. The 1 mL volumes of thrombin and fibrinogen (2 mL total) were sprayed onto collagen casing. Immediately following coagulation (˜30 seconds), the samples were washed 3× in cacodylate buffer for 10 minutes and fixed in 2% glutaraldehyde buffer (Electron Microscopy Sciences). Fixed clots were washed, serially dehydrated with ethanol, and dried with hexamethyldisilizane (Electron Microscopy Sciences). Clots were allowed to air dry overnight thereafter. Clots were then teased apart with forceps and mounted on aluminum sample supports with carbon adhesive tape. Samples were sputter coated with 20 nm iridium metal in a Leica ACE600 and analyzed by scanning electron microscopy (FEI Quanta 650 FEG). Branching analysis was performed using 2D images cross-sectional cuts of fibrin clots. Representative images and sections displaying easily discernible fibrin branching characteristics were selected from each group. Images were processed using ImageJ's skeleton analysis function. In short, images were first binarized to delineate the image further into branch and background sections. Binary images were then placed through the Analyze Skeleton (2D/3D) function with no pruning or selected parameters. The output file included details such as branch lengths, branch numbers, and number of junctions.

Y79 retinoblastoma cells = assay: Cell viability assay (resazurin/Alamar Blue), Y79; type: cell-based, human; conditions: single drug, read-out: Standalone IC50
Procedure: as §1, §2, §3

| Avg Branch length (TISSEEL fibrin sealant) | Branch/Junction Ratio (TISSEEL fibrin sealant) | Junctions (TISSEEL fibrin sealant) | Max Branch Number (TISSEEL fibrin sealant) | IC50 ([1]; Homo sapiens) | IC50 (Y79 retinoblastoma cells; Homo sapiens) | Compound | IC50 [1] | IC50 (Y79 retinoblastoma cells) |
| --- | --- | --- | --- | --- | --- | --- | --- | --- |
| 21 nm | 66.2 | 125 +/− 2.1 | 8272 +/− 140 | 2700 nM | 6000 nM | COc1cc([C@@H]2c3cc4c(cc3[C@@H](O[C@@H]3O[C@@H]5CO[C@@H](C)O[C@H]5[C@H](O)[C@H]3O)[C@H]3COC(=O)[C@H]23)OCO4)cc(OC)c1O [Etoposide] | – | – |
| 22 nm | 55.7 | 136 +/− 2.3 | 7580 +/− 125 | 2900 nM | 100 nM | CC[C@]1(O)C[C@H]2CN(CCc3c([nH]c4ccccc34)[C@@](C(=O)OC)(c3cc4c(cc3OC)N(C=O)[C@H]3[C@@](O)(C(=O)OC)[C@H](OC(C)=O)[C@]5(CC)C=CCN6CC[C@]43[C@@H]65)C2)C1 [Vincristine] | – | – |

| Compound | Avg Branch length (TISSEEL fibrin sealant) | Branch/Junction Ratio (TISSEEL fibrin sealant) | Junctions (TISSEEL fibrin sealant) | Max Branch Number (TISSEEL fibrin sealant) | IC50 ([1]; Homo sapiens) | IC50 (Y79 retinoblastoma cells; Homo sapiens) | IC50 [1] | IC50 (Y79 retinoblastoma cells) |
| --- | --- | --- | --- | --- | --- | --- | --- | --- |
| N.N.O=C([O-])C1(C(=O)[O-])CCC1.[Pt+2] [Carboplatin] | 19 nm | 68.0 | 148 +/− 2.6 | 10065 +/− 142 | – | – | 1000 nM | 1100 nM |
